Test results reported in patent publication US9834563B2 (Merck Sharp & Dohme Corp., priority 2013, dated 2017).

Assays:
Human GPR40 [1] = target: T1, Human GPR40 (Homo sapiens, UniProt O14842); test: FLIPR assay: agonist-induced calcium mobilization in GPR40/CHO NFAT BLA cells; format: cell-based; parameters: expressed in transfected cells; host or cells: CHO cells stably expressing NFAT BLA (beta-lactamase)
Description: (§1) Human and mouse GPR40 stable cell-lines were generated in CHO cells stably expressing NFAT BLA (Beta-lactamase). A human GPR40 stable cell-line was generated in HEK cells stably expressing the aequorin expressing reporter. The expression plasmids were transfected using lipofectamine, LIFE TECHNOLOGIES (Carlsbad, Calif.), following manufacturer's instructions. Stable cell-lines were generated following drug selection.
FLIPR (Fluorimetric Imaging Plate Reader, Molecular Devices) assays were performed to measure agonist-induced calcium mobilization of the stable clones. For the FLIPR assay, one day before assay, GPR40/CHO NFAT BLA cells were seeded into black-wall-clear-bottom 384-well plates (Costar) at 1.4×10e4 cells/20 μL medium/well. The cells were incubated with 20 μl/well of the assay buffer (HBSS, 0.1% BSA, 20 mM HEPES, 2.5 mM probenecid, pH 7.4) containing 8 μM fluo-4, AM, 0.08% pluronic acid at room temperature for 100 minutes. Fluorescence output was measured using FLIPR. Compounds were dissolved in DMSO and diluted to desired concentrations with assay buffer. 13.3 μL/well of compound solution was added. The activities of the compounds in the examples have EC50 (effective concentration of compound to afford 50% of the maximum observed fluorescence) values listed in Table I.

Human GPR40 [2] = target: T1, Human GPR40; test: Inositol phosphate turnover (IP1) assay in HEK cells stably expressing human GPR40; format: cell-based; parameters: expressed in transfected cells; details: HEK cells stably expressing human GPR40, 3H-inositol labeling, 60 min compound incubation
Experimental: as §1
The assay is performed in a 96-well format. HEK cells stably expressing human GPR40 are plated to be 60-80% confluent within 72 h. After 72 h, the plates are aspirated and the cells washed with inositol-free DMEM (ICN). The wash media is replaced with 150 μL of 3H-inositol labeling media (inositol-free media containing 0.4% human albumin or 0.4% mouse albumin, 1× pen/strep antibiotics, glutamine, 25 mM HEPES to which is added 3H-myo-inositol NEN #NET114A 1 mCi/mL, 25 Ci/mmol diluted 1:150 in loading media with a final specific radioactivity of 1 μCi/150 μL). Alternatively, the human and mouse albumin can be added after the overnight labeling step before the addition of LiCl.
The assay is typically run the next day after 18 h labeling. On the day of the assay, 5 μL of 300 mM LiCl is added to all wells and incubated at 37 degrees for 20 min. 0.75 μL of 200× compounds are added and incubated with the cells for 60 min at 37 degrees. The media is then aspirated off and the assay terminated with the addition of 60 μL 10 mM formic acid. The cells are lysed for 60 min at room temperature. 15-30 μL of lysate is mixed with 70 μL/1 mg YSi SPA beads AMERSHAM (United Kingdom) in clear bottom Isoplates. The plates are shaken for 2 h at room temperature. Beads are allowed to settle and the plates are counted in the Wallac MICROBETA instrument. The activities of the compounds in the examples have EC50 (effective concentration of compound to afford 50% of the maximum observed […]) values listed in Table I.

T1 sequence (O14842 whole entry): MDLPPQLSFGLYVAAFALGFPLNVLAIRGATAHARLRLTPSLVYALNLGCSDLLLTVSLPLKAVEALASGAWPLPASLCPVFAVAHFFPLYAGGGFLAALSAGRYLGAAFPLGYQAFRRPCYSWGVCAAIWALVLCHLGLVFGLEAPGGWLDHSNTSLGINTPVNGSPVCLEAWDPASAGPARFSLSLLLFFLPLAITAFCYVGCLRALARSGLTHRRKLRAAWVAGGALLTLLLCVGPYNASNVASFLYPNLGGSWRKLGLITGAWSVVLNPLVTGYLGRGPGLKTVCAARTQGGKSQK

Structure (SMILES)	EC50 (Human GPR40 [1])	EC50 (Human GPR40 [2])
Cc1nc(N2CCC(S(C)(=O)=O)CC2)ccc1-c1cccc(COc2ccc3c(c2)C[C@H]2[C@H](C(=O)O)[C@@H]32)c1 [Example 3, (1S,1aS,6aR)-4-((3-(2-Methyl-6-(4-(methylsulfonyl)piperidin-1-yl)pyridin-3-yl)benzyl)oxy)-1,1a,6,6a-tetrahydrocyclopropa[a]indene-1-carboxylic acid]	59.9 nM	–
CS(=O)(=O)CCCOc1ccc(-c2cccc(COc3ccc4c(c3)C[C@H]3[C@H](C(=O)O)[C@@H]43)c2)c(CO)n1 [Example 18, 4-{3-[2-Hydroxymethyl-6-(3-methanesulfonyl-propoxy)-pyridin-3-yl]-benzyloxy}-1,1a,6,6a-tetrahydro-cyclopropa[a]indene-1-carboxylic acid]	206 nM	–
Cc1nc(N2CCC(C#N)(c3ccccc3)CC2)nc(C)c1-c1ccc(F)c(COc2ccc3c(c2)C[C@H]2[C@H](C(=O)O)[C@@H]32)c1 [Example 44, (1S,1aS,6aR)-4-((5-(2-(4-cyano-4-phenylpiperidin-1-yl)-4,6-dimethylpyrimidin-5-yl)-2-fluorobenzyl)oxy)-1,1a,6,6a-tetrahydrocyclopropa[a]indene-1-carboxylic acid]	23.2 nM	221 nM
Cc1nc(OCCCCn2nccn2)ccc1-c1ccc(F)c(COc2ccc3c(c2)CC2C(C(=O)O)C32)c1 (stereo not shown) [Example 29, 4-((5-(6-(4-(2H-1,2,3-triazol-2-yl)butoxy)-2-methyl-pyridin-3-yl)-2-fluorobenzyl)oxy)-1,1a,6,6a-tetrahydrocyclo-propa[a]indene-1-carboxylic acid]	16.1 nM	26.5 nM
Cc1cc(NCCCS(C)(=O)=O)ncc1-c1cccc(COc2ccc3c(c2)C[C@H]2[C@H](C(=O)O)[C@@H]32)c1 [Example 15, 4-{3-[6-(3-Methanesulfonyl-propylamino)-4-methyl-pyridin-3-yl]-benzyloxy}-1,1a,6,6a-tetrahydro-cyclopropa[a]indene-1-carboxylic acid]	317 nM	–
Cc1nc(OCCCOCc2ccccc2)ccc1-c1ccc(F)c(COc2ccc3c(c2)C[C@H]2[C@H](C(=O)O)[C@@H]32)c1 [Example 34, (1S,1aS,6aR)-4-((5-(6-(3-(benzyloxy)propoxy)-2-methylpyridin-3-yl)-2-fluorobenzyl)oxy)-1,1a,6,6a-tetrahydrocyclo-propa[a]indene-1-carboxylic acid]	75.1 nM	889 nM
Cc1nc(OC[C@@H]2CCCC[C@H]2S(C)(=O)=O)ccc1-c1ccc(F)c(COc2ccc3c(c2)C[C@H]2[C@H](C(=O)O)[C@@H]32)c1 [Example 25, (1S,1aS,6aR)-4-((2-fluoro-5-(2-methyl-6-(((1S,2R)-2-(methylsulfonyl)cyclohexyl)methoxy)pyridin-3-yl)benzyl)oxy)-1,1a,6,6a-tetrahydrocyclopropa[a]indene-1-carboxylic acid]	67.9 nM	39 nM
Cc1cc(OCCCS(C)(=O)=O)nc(C)c1-c1ccc(F)c(COc2ccc3c(c2)C[C@H]2[C@H](C(=O)O)[C@@H]32)c1F [Example 21, 4-(2,6-difluoro-3-[6-(3-methanesulfonyl-propoxy)-2,4-dimethyl-pyridin-3-yl]-benzyloxy)-1,1a,6,6a-tetrahydro-cyclopropa[a]indene-1-carboxylic acid]	47.4 nM	–
Cc1cc(OC2CCS(=O)(=O)CC2)ncc1-c1ccc(F)c(COc2ccc3c(c2)C[C@H]2[C@H](C(=O)O)[C@@H]32)c1 [Example 10, 4-{5-[6-(1,1-Dioxo-hexahydro-l16-thiopyran-4-yloxy)-4-methyl-pyridin-3-yl]-2-fluoro-benzyloxy}-1,1a,6,6a-tetrahydro-cyclopropa[a]indene-1-carboxylic acid]	93.1 nM	–
Cc1cc(NCCCS(C)(=O)=O)ncc1-c1cccc(COc2ccc3c(c2)C[C@H]2[C@H](C(=O)O)[C@@H]32)c1C [Example 16, 4-{3-[6-(3-Methanesulfonyl-propylamino)-4-methyl-pyridin-3-yl]-2-methyl-benzyloxy}-1,1a,6,6a-tetrahydro-cyclopropa[a]indene-1-carboxylic acid]	4280 nM	–
Cc1cc(OCCCS(C)(=O)=O)ncc1-c1cccc(COc2ccc3c(c2)C[C@H]2[C@H](C(=O)O)[C@@H]32)c1C [Example 8, 4-{3-[6-(3-Methanesulfonyl-propoxy)-4-methyl-pyridin-3-yl]-2-methyl-benzyloxy}-1,1a,6,6a-tetrahydro-cyclopropa[a]indene-1-carboxylic acid]	232 nM	–
Cc1nc(OC2CCS(=O)(=O)CC2)ccc1-c1cccc(COc2ccc3c(c2)C[C@H]2[C@H](C(=O)O)[C@@H]32)c1C [Example 17, 4-{3-[6-(1,1-Dioxo-hexahydro-l16-thiopyran-4-yloxy)-2-methyl-pyridin-3-yl]-2-methyl-benzyloxy}-1,1a,6,6a-tetrahydro-cyclopropa[a]indene-1-carboxylic acid]	252 nM	–
Cc1cc(OCCCS(C)(=O)=O)ncc1-c1ccc(F)c(COc2ccc3c(c2)C[C@H]2[C@H](C(=O)O)[C@@H]32)c1F [Example 22, 4-(2,6-difluoro-3-[6-(3-methanesulfonyl-propoxy)-4-methyl-pyridin-3-yl]-benzyloxy)-1,1a,6,6a-tetrahydro-cyclopropa[a]indene-1-carboxylic acid]	58.9 nM	–
Cc1cc(OC2CCS(=O)(=O)CC2)nc(C)c1-c1ccc(F)c(COc2ccc3c(c2)C[C@H]2[C@H](C(=O)O)[C@@H]32)c1 [Example 9, 4-{5-[6-(1,1-Dioxo-hexahydro-l16-thiopyran-4-yloxy)-2,4-dimethyl-pyridin-3-yl]-2-fluoro-benzyloxy}-1,1a,6,6a-tetrahydro-cyclopropa[a]indene-1-carboxylic acid]	99 nM	–
Cc1cc(OCCCS(C)(=O)=O)nc(C)c1-c1cccc(COc2ccc3c(c2)C[C@H]2[C@H](C(=O)O)[C@@H]32)c1C [Example 7, 4-{3-[6-(3-Methane-sulfonyl-propoxy)-2,4-dimethyl-pyridin-3-yl]-2-methyl-benzyloxy}-1,1a,6,6a-tetrahydro-cyclopropa[a]indene-1-carboxylic acid]	98 nM	–
Cc1cc(OCCCS(C)(=O)=O)ncc1-c1ccc(F)c(COc2ccc3c(c2)C[C@H]2[C@H](C(=O)O)[C@@H]32)c1 [Example 19, (1S,1aS,6aR)-4-[(2-fluoro-5-{4-methyl-6-[3-(methylsulfonyl)propoxy]pyridin-3-yl}benzyl)oxy]-1,1a,6,6a-tetrahydrocyclopropa[a]indene-1-carboxylic acid]	5.5 nM	–
Cc1nc(NCCCS(C)(=O)=O)ccc1-c1cccc(COc2ccc3c(c2)C[C@H]2[C@H](C(=O)O)[C@@H]32)c1 [Example 12, 4-{3-[6-(3-Methanesulfonyl-propylamino)-2-methyl-pyridin-3-yl]-benzyloxy}-1,1a,6,6a-tetrahydro-cyclopropa[a]indene-1-carboxylic acid]	123 nM	–
Cc1cc(OC2CCS(=O)(=O)CC2)nc(C)c1-c1cccc(COc2ccc3c(c2)C[C@H]2[C@H](C(=O)O)[C@@H]32)c1 [Example 13, 4-{3-[6-(1,1-Dioxo-hexahydro-l16-thiopyran-4-yloxy)-2,4-dimethyl-pyridin-3-yl]-benzyloxy}-1,1a,6,6a-tetrahydro-cyclopropa[a]indene-1-carboxylic acid]	102 nM	–
